Reference: the supplement of paper PMC10307832

Experiments:
Test in all cases: relative viability (nuclei count vs DMSO), 5 days (fraction); higher = more cells survive
[1] = test system: 201T
Procedure, shortened: (§1)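 Relative viability equals treated-well nuclei counts divided by vehicle-well nuclei counts. Counts came from 4× images of lung cancer cell lines grown in 1536-well plates for 5 days after pin-tool dosing on the day after seeding. Dosing used one drug alone or a fixed anchor-drug dose plus five library-drug doses (not always all listed) in √10 steps, and values are medians of duplicate plates.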

[2] = test system: HCC-827
Procedure, shortened: as §1

[3] = test system: RERF-LC-KJ
Procedure, shortened: as §1

[4] = test system: NCI-H2087
Procedure, shortened: as §1

[5] = test system: NCI-H1915
Procedure, shortened: as §1

[6] = test system: NCI-H1666
Procedure, shortened: as §1

[7] = test system: PC-14
Procedure, shortened: as §1

[8] = test system: NCI-H520
Procedure, shortened: as §1

[9] = test system: NCI-H647
Procedure, shortened: as §1

[10] = test system: H3255
Procedure, shortened: as §1

[11] = test system: HCC-78
Procedure, shortened: as §1

[12] = test system: NCI-H23
Procedure, shortened: as §1

[13] = test system: NCI-H2347
Procedure, shortened: as §1

[14] = test system: COR-L 105
Procedure, shortened: as §1

[15] = test system: NCI-H2405
Procedure, shortened: as §1

[16] = test system: NCI-H2126
Procedure, shortened: as §1

[17] = test system: LC-2-ad
Procedure, shortened: as §1

[18] = test system: EPLC-272H
Procedure, shortened: as §1

[19] = test system: LCLC-97TM1
Procedure, shortened: as §1

[20] = test system: ChaGo-K-1
Procedure, shortened: as §1

For `O=c1cc(-c2cccc3c2Sc2ccccc2S3)oc(N2CCOCC2)c1` + CC1(C)CCC(c2ccc(Cl)cc2)=C(CN2CCN(c3ccc(C(=O)NS(=O)(=O)c4ccc(N[C@H](CCN5CCOCC5)CSc5ccccc5)c(S(=O)(=O)C(F)(F)F)c4)cc3)CC2)C1 [Navitoclax] (partner 0.5 µM), which relative viability ([1]; first compound 0.08 µM) is on record?
Its relative viability is 1.15.

And the relative viability ([1]; first compound 0.253 µM)?
The relative viability was 1.2.

And the relative viability ([1]; first compound 0.8 µM)?
The relative viability was 1.23.

What about the relative viability ([1]; first compound 2.53 µM) of the same compound?
Its relative viability is 1.2.

And the relative viability ([1]; first compound 8 µM)?
Its relative viability is 1.15.

And the relative viability ([2]; first compound 0.08 µM)?
Its relative viability is 1.05.

And the relative viability ([2]; first compound 0.253 µM)?
The relative viability was 1.06.

And the relative viability ([2]; first compound 0.8 µM)?
Its relative viability is 1.08.

What about the relative viability ([2]; first compound 2.53 µM) of the same compound?
The relative viability was 0.998.

And the relative viability ([2]; first compound 8 µM)?
The relative viability was 1.07.

What about the relative viability ([3]; first compound 0.08 µM) of the same compound?
The relative viability was 0.768.

What about the relative viability ([3]; first compound 0.253 µM) of the same compound?
Its relative viability is 0.711.

What about the relative viability ([3]; first compound 0.8 µM) of the same compound?
Its relative viability is 0.934.

And the relative viability ([3]; first compound 2.53 µM)?
The relative viability was 0.798.

And the relative viability ([3]; first compound 8 µM)?
Its relative viability is 0.856.

And the relative viability ([4]; first compound 0.08 µM)?
The relative viability was 0.995.

And the relative viability ([4]; first compound 0.253 µM)?
The relative viability was 1.3.

And the relative viability ([4]; first compound 0.8 µM)?
The relative viability was 1.07.

And the relative viability ([4]; first compound 2.53 µM)?
The relative viability was 0.955.

And the relative viability ([4]; first compound 8 µM)?
The relative viability was 1.21.

What about the relative viability ([5]; first compound 0.08 µM) of the same compound?
Its relative viability is 0.776.

What about the relative viability ([5]; first compound 0.253 µM) of the same compound?
Its relative viability is 0.847.

And the relative viability ([5]; first compound 0.8 µM)?
Its relative viability is 0.795.

What about the relative viability ([5]; first compound 2.53 µM) of the same compound?
Its relative viability is 0.787.

And the relative viability ([5]; first compound 8 µM)?
Its relative viability is 0.872.

And the relative viability ([6]; first compound 0.08 µM)?
Its relative viability is 0.988.

What about the relative viability ([6]; first compound 0.253 µM) of the same compound?
Its relative viability is 0.976.

And the relative viability ([6]; first compound 0.8 µM)?
The relative viability was 0.952.

And the relative viability ([6]; first compound 2.53 µM)?
The relative viability was 0.868.

What about the relative viability ([6]; first compound 8 µM) of the same compound?
The relative viability was 0.799.

What about the relative viability ([7]; first compound 0.08 µM) of the same compound?
Its relative viability is 1.04.

What about the relative viability ([7]; first compound 0.253 µM) of the same compound?
Its relative viability is 1.31.

And the relative viability ([7]; first compound 0.8 µM)?
Its relative viability is 1.01.

And the relative viability ([7]; first compound 2.53 µM)?
The relative viability was 0.946.

What about the relative viability ([7]; first compound 8 µM) of the same compound?
Its relative viability is 1.05.

And the relative viability ([8]; first compound 0.08 µM)?
Its relative viability is 0.992.

What about the relative viability ([8]; first compound 0.253 µM) of the same compound?
Its relative viability is 1.1.

And the relative viability ([8]; first compound 0.8 µM)?
The relative viability was 1.04.

What about the relative viability ([8]; first compound 2.53 µM) of the same compound?
Its relative viability is 0.993.

And the relative viability ([8]; first compound 8 µM)?
The relative viability was 1.2.

What about the relative viability ([9]; first compound 0.08 µM) of the same compound?
Its relative viability is 1.2.

And the relative viability ([9]; first compound 0.253 µM)?
Its relative viability is 1.15.

And the relative viability ([9]; first compound 0.8 µM)?
The relative viability was 1.12.

And the relative viability ([9]; first compound 2.53 µM)?
Its relative viability is 1.04.

And the relative viability ([9]; first compound 8 µM)?
Its relative viability is 1.37.

What about the relative viability ([10]; first compound 0.08 µM) of the same compound?
The relative viability was 0.55.

And the relative viability ([10]; first compound 0.253 µM)?
The relative viability was 0.468.

What about the relative viability ([10]; first compound 0.8 µM) of the same compound?
The relative viability was 0.474.

And the relative viability ([10]; first compound 2.53 µM)?
Its relative viability is 0.61.

What about the relative viability ([10]; first compound 8 µM) of the same compound?
The relative viability was 0.698.

And the relative viability ([11]; first compound 0.08 µM)?
The relative viability was 0.806.

What about the relative viability ([11]; first compound 0.253 µM) of the same compound?
Its relative viability is 0.978.

And the relative viability ([11]; first compound 0.8 µM)?
Its relative viability is 0.767.

And the relative viability ([11]; first compound 2.53 µM)?
Its relative viability is 0.779.

And the relative viability ([11]; first compound 8 µM)?
Its relative viability is 0.816.

What about the relative viability ([12]; first compound 0.08 µM) of the same compound?
The relative viability was 0.829.

And the relative viability ([12]; first compound 0.253 µM)?
The relative viability was 1.01.

And the relative viability ([12]; first compound 0.8 µM)?
Its relative viability is 0.879.

What about the relative viability ([12]; first compound 2.53 µM) of the same compound?
Its relative viability is 0.725.

What about the relative viability ([12]; first compound 8 µM) of the same compound?
Its relative viability is 0.884.

What about the relative viability ([13]; first compound 0.08 µM) of the same compound?
The relative viability was 0.855.

And the relative viability ([13]; first compound 0.253 µM)?
The relative viability was 1.08.

And the relative viability ([13]; first compound 0.8 µM)?
Its relative viability is 0.799.

And the relative viability ([13]; first compound 2.53 µM)?
The relative viability was 0.839.

What about the relative viability ([13]; first compound 8 µM) of the same compound?
The relative viability was 0.969.

And the relative viability ([14]; first compound 0.08 µM)?
The relative viability was 0.649.

And the relative viability ([14]; first compound 0.253 µM)?
The relative viability was 0.849.

And the relative viability ([14]; first compound 0.8 µM)?
Its relative viability is 0.678.

And the relative viability ([14]; first compound 2.53 µM)?
Its relative viability is 0.642.

What about the relative viability ([14]; first compound 8 µM) of the same compound?
The relative viability was 0.993.

What about the relative viability ([15]; first compound 0.08 µM) of the same compound?
Its relative viability is 0.887.

What about the relative viability ([15]; first compound 0.253 µM) of the same compound?
Its relative viability is 0.761.

And the relative viability ([15]; first compound 0.8 µM)?
The relative viability was 0.794.

What about the relative viability ([15]; first compound 2.53 µM) of the same compound?
Its relative viability is 0.825.

And the relative viability ([15]; first compound 8 µM)?
The relative viability was 0.78.

And the relative viability ([16]; first compound 0.08 µM)?
The relative viability was 0.808.

And the relative viability ([16]; first compound 0.253 µM)?
The relative viability was 0.974.

And the relative viability ([16]; first compound 0.8 µM)?
Its relative viability is 0.8.

What about the relative viability ([16]; first compound 2.53 µM) of the same compound?
The relative viability was 0.826.

What about the relative viability ([16]; first compound 8 µM) of the same compound?
Its relative viability is 0.849.

And the relative viability ([17]; first compound 0.08 µM)?
The relative viability was 0.363.

And the relative viability ([17]; first compound 0.253 µM)?
The relative viability was 0.666.

What about the relative viability ([17]; first compound 0.8 µM) of the same compound?
Its relative viability is 0.375.

What about the relative viability ([17]; first compound 2.53 µM) of the same compound?
Its relative viability is 0.421.

What about the relative viability ([17]; first compound 8 µM) of the same compound?
Its relative viability is 0.403.

And the relative viability ([18]; first compound 0.08 µM)?
Its relative viability is 1.09.

What about the relative viability ([18]; first compound 0.253 µM) of the same compound?
Its relative viability is 1.17.

And the relative viability ([18]; first compound 0.8 µM)?
The relative viability was 1.17.

What about the relative viability ([18]; first compound 2.53 µM) of the same compound?
The relative viability was 1.09.

What about the relative viability ([18]; first compound 8 µM) of the same compound?
The relative viability was 1.2.

What about the relative viability ([19]; first compound 0.08 µM) of the same compound?
The relative viability was 0.425.

And the relative viability ([19]; first compound 0.253 µM)?
Its relative viability is 0.597.

What about the relative viability ([19]; first compound 0.8 µM) of the same compound?
The relative viability was 0.374.

What about the relative viability ([19]; first compound 2.53 µM) of the same compound?
The relative viability was 0.329.

And the relative viability ([19]; first compound 8 µM)?
Its relative viability is 0.372.

What about the relative viability ([20]; first compound 0.08 µM) of the same compound?
The relative viability was 0.903.

What about the relative viability ([20]; first compound 0.253 µM) of the same compound?
The relative viability was 1.04.

And the relative viability ([20]; first compound 0.8 µM)?
The relative viability was 1.12.

What about the relative viability ([20]; first compound 8 µM) of the same compound?
Its relative viability is 1.25.
